Results taken from patent US10961231B2, “NTCP inhibitors” (National Institute of Biological Sciences, Beijing, priority 2018, dated 2021).

Biological target: T1, NTCP (Homo sapiens, UniProt Q14973)
T1 sequence (Q14973 1-349): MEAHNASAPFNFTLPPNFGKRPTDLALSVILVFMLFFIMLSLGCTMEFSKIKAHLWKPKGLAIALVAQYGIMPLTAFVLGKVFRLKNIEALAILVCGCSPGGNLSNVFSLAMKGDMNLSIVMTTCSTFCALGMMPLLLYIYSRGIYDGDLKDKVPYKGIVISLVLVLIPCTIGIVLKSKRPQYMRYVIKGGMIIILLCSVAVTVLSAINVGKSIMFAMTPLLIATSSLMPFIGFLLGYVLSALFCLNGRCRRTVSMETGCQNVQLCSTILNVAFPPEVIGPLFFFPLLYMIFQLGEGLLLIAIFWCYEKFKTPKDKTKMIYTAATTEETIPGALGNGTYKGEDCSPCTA
Assay: [3H]-TCA uptake assay (NTCP inhibition)
Type: cell-based
Outline: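 Read-out is liquid scintillation counting of Triton X-100 lysates after 15 min, 37° C uptake of 1 μM [3H]-taurocholate in Na+ Ringer's buffer (145 mM Na). Beforehand, PTH and HepG2-NTCP cells had 24 h in PMM for NTCP induction and 2 h of compound or DMSO treatment.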

[1] = IC50, given as a range, marked * (asterisk not explained)
[2] = given as a range, assay not given

Row | Compound | IC50 [1] | IC50 [2] | other results
1 | CCC1NC(=O)C(C2OC(Oc3cccc(OCc4cccnc4)c3)CC2C)N(C)C(=O)C(C(C)C)N(C)C(=O)C(CC(C)C)N(C)C(=O)C(CC(C)C)N(C)C(=O)C(C)NC(=O)C(C)NC(=O)C(CC(C)C)N(C)C(=O)C(C(C)C)NC(=O)C(CC(C)C)N(C)C(=O)CN(C)C1=O (stereo not drawn) [53A + B(1:1.5)-o] | 1 to 100 µM |  | 
2 | CCC1NC(=O)C(C2OC(SCc3cc(Cl)ccc3Cl)CC2C)N(C)C(=O)C(C(C)C)N(C)C(=O)C(CC(C)C)N(C)C(=O)C(CC(C)C)N(C)C(=O)C(C)NC(=O)C(C)NC(=O)C(CC(C)C)N(C)C(=O)C(C(C)C)NC(=O)C(CC(C)C)N(C)C(=O)CN(C)C1=O (stereo not drawn) [Compound 98A-s] | 1 to 100 µM |  | 
3 | CCC1NC(=O)C(C2OC(Oc3ccc(C)cc3)CC2C)N(C)C(=O)C(C(C)C)N(C)C(=O)C(CC(C)C)N(C)C(=O)C(CC(C)C)N(C)C(=O)C(C)NC(=O)C(C)NC(=O)C(CC(C)C)N(C)C(=O)C(C(C)C)NC(=O)C(CC(C)C)N(C)C(=O)CN(C)C1=O (stereo not drawn) [Compound 2A-o] | 1 to 100 µM |  | 
4 | CCC1NC(=O)C(C2OC(Oc3cccc(OCC4CCN(C)CC4)c3)CC2C)N(C)C(=O)C(C(C)C)N(C)C(=O)C(CC(C)C)N(C)C(=O)C(CC(C)C)N(C)C(=O)C(C)NC(=O)C(C)NC(=O)C(CC(C)C)N(C)C(=O)C(C(C)C)NC(=O)C(CC(C)C)N(C)C(=O)CN(C)C1=O (stereo not drawn) [Compound 72-o] | 1 to 100 µM |  | 
5 | CCC1NC(=O)C(C2OC(Oc3cccc(OCc4ccccn4)c3)CC2C)N(C)C(=O)C(C(C)C)N(C)C(=O)C(CC(C)C)N(C)C(=O)C(CC(C)C)N(C)C(=O)C(C)NC(=O)C(C)NC(=O)C(CC(C)C)N(C)C(=O)C(C(C)C)NC(=O)C(CC(C)C)N(C)C(=O)CN(C)C1=O (stereo not drawn) [Compound 52A-o] | 1 to 100 µM |  | 
6 | CCC1NC(=O)C(C2OC(Oc3ccc(C4CCCCC4)cc3)CC2C)N(C)C(=O)C(C(C)C)N(C)C(=O)C(CC(C)C)N(C)C(=O)C(CC(C)C)N(C)C(=O)C(C)NC(=O)C(C)NC(=O)C(CC(C)C)N(C)C(=O)C(C(C)C)NC(=O)C(CC(C)C)N(C)C(=O)CN(C)C1=O (stereo not drawn) [Compound 9A-o] | 1 to 100 µM |  | 
7 | CCC1NC(=O)C(C2OC(SCc3ccc(Cl)cc3)CC2C)N(C)C(=O)C(C(C)C)N(C)C(=O)C(CC(C)C)N(C)C(=O)C(CC(C)C)N(C)C(=O)C(C)NC(=O)C(C)NC(=O)C(CC(C)C)N(C)C(=O)C(C(C)C)NC(=O)C(CC(C)C)N(C)C(=O)CN(C)C1=O (stereo not drawn) [Compound 86A-s] |  |  | IC50 (IC50, given as a range, assay not given): 1 to 100 µM
8 | CCC1NC(=O)C(C2OC(SC(C)c3ccc(Cl)cc3)CC2C)N(C)C(=O)C(C(C)C)N(C)C(=O)C(CC(C)C)N(C)C(=O)C(CC(C)C)N(C)C(=O)C(C)NC(=O)C(C)NC(=O)C(CC(C)C)N(C)C(=O)C(C(C)C)NC(=O)C(CC(C)C)N(C)C(=O)CN(C)C1=O (stereo not drawn) [Compound 102-s] | 1 to 100 µM |  | 
9 | CCC1NC(=O)C(C2OC(OCc3ccc(Cl)cc3Cl)CC2C)N(C)C(=O)C(C(C)C)N(C)C(=O)C(CC(C)C)N(C)C(=O)C(CC(C)C)N(C)C(=O)C(C)NC(=O)C(C)NC(=O)C(CC(C)C)N(C)C(=O)C(C(C)C)NC(=O)C(CC(C)C)N(C)C(=O)CN(C)C1=O (single isomer, unassigned) [Compound 89A] |  | 0.001 to 1 µM | 
10 | CCC1NC(=O)C(C2OC(OC(C)c3ccccc3)CC2C)N(C)C(=O)C(C(C)C)N(C)C(=O)C(CC(C)C)N(C)C(=O)C(CC(C)C)N(C)C(=O)C(C)NC(=O)C(C)NC(=O)C(CC(C)C)N(C)C(=O)C(C(C)C)NC(=O)C(CC(C)C)N(C)C(=O)CN(C)C1=O (single isomer, unassigned) [Compound 78B] |  | 0.001 to 1 µM | 
11 | CCC1NC(=O)C(C2OC(Sc3cccc(OCC4CC4)c3)CC2C)N(C)C(=O)C(C(C)C)N(C)C(=O)C(CC(C)C)N(C)C(=O)C(CC(C)C)N(C)C(=O)C(C)NC(=O)C(C)NC(=O)C(CC(C)C)N(C)C(=O)C(C(C)C)NC(=O)C(CC(C)C)N(C)C(=O)CN(C)C1=O [Compound 32A, [2-((2R,3R)-5-(3-(cyclopropylmethoxy)phenylthio)-3-methyltetrahydrofuran-2-yl)-2-(methylamino)acetic acid]^1-cyclosporin A] |  | 0.001 to 1 µM | 
12 | CCC1NC(=O)C(C2OC(Sc3cc(Cl)cc(OC)c3)CC2C)N(C)C(=O)C(C(C)C)N(C)C(=O)C(CC(C)C)N(C)C(=O)C(CC(C)C)N(C)C(=O)C(C)NC(=O)C(C)NC(=O)C(CC(C)C)N(C)C(=O)C(C(C)C)NC(=O)C(CC(C)C)N(C)C(=O)CN(C)C1=O [Compound 59A, [2-((2R,3R)-5-(3-chloro-5-methoxyphenylthio)-3-methyltetrahydrofuran-2-yl)-2-(methylamino)acetic acid]^1-cyclosporin A] |  | 0.001 to 1 µM | 
13 | CCC1NC(=O)C(C2OC(Oc3cccc(OCc4cccs4)c3)CC2C)N(C)C(=O)C(C(C)C)N(C)C(=O)C(CC(C)C)N(C)C(=O)C(CC(C)C)N(C)C(=O)C(C)NC(=O)C(C)NC(=O)C(CC(C)C)N(C)C(=O)C(C(C)C)NC(=O)C(CC(C)C)N(C)C(=O)CN(C)C1=O (stereo not drawn) [Compound 69-o] | 1 to 100 µM |  | 
14 | CCC1NC(=O)C(C2OC(Sc3cccc(OCc4ccccn4)c3)CC2C)N(C)C(=O)C(C(C)C)N(C)C(=O)C(CC(C)C)N(C)C(=O)C(CC(C)C)N(C)C(=O)C(C)NC(=O)C(C)NC(=O)C(CC(C)C)N(C)C(=O)C(C(C)C)NC(=O)C(CC(C)C)N(C)C(=O)CN(C)C1=O [Compound 52A, [2-((2R,3R)-3-methyl-5-(3-(pyridin-2-ylmethoxy)phenylthio)tetrahydrofuran-2-yl)-2-(methylamino)acetic acid]^1-cyclosporin A] |  | 0.001 to 1 µM | 
15 | CCC1NC(=O)C(C2OC(SCc3ccc(OCCN(C)C)cc3)CC2C)N(C)C(=O)C(C(C)C)N(C)C(=O)C(CC(C)C)N(C)C(=O)C(CC(C)C)N(C)C(=O)C(C)NC(=O)C(C)NC(=O)C(CC(C)C)N(C)C(=O)C(C(C)C)NC(=O)C(CC(C)C)N(C)C(=O)CN(C)C1=O (stereo not drawn) [Compound 87A-s] | 1 to 100 µM |  | 
16 | CCC1NC(=O)C(C2OC(Oc3cc(Cl)cc(OCc4ccc(F)cc4)c3)CC2C)N(C)C(=O)C(C(C)C)N(C)C(=O)C(CC(C)C)N(C)C(=O)C(CC(C)C)N(C)C(=O)C(C)NC(=O)C(C)NC(=O)C(CC(C)C)N(C)C(=O)C(C(C)C)NC(=O)C(CC(C)C)N(C)C(=O)CN(C)C1=O (stereo not drawn) [Compound 61A-o] |  |  | IC50 (given as a range, marked * (asterisk not explained)): 1 to 100 µM
17 | CCC1NC(=O)C(C2OC(Sc3ccc(Cl)c(OC)c3)CC2C)N(C)C(=O)C(C(C)C)N(C)C(=O)C(CC(C)C)N(C)C(=O)C(CC(C)C)N(C)C(=O)C(C)NC(=O)C(C)NC(=O)C(CC(C)C)N(C)C(=O)C(C(C)C)NC(=O)C(CC(C)C)N(C)C(=O)CN(C)C1=O [Compound 40A, [2-((2R,3R)-5-(4-chloro-3-methoxyphenylthio)-3-methyltetrahydrofuran-2-yl)-2-(methylamino)acetic acid]^1-cyclosporin A] |  | 0.001 to 1 µM | 
18 | CCC1NC(=O)C(C2OC(Sc3ccc(Cl)c(OCc4ccccc4)c3)CC2C)N(C)C(=O)C(C(C)C)N(C)C(=O)C(CC(C)C)N(C)C(=O)C(CC(C)C)N(C)C(=O)C(C)NC(=O)C(C)NC(=O)C(CC(C)C)N(C)C(=O)C(C(C)C)NC(=O)C(CC(C)C)N(C)C(=O)CN(C)C1=O [Compound 44A, [2-((2R,3R)-5-(3-(benzyloxy)-4-chlorophenylthio)-3-methyltetrahydrofuran-2-yl)-2-(methylamino)acetic acid]^1-cyclosporin A] |  | 0.001 to 1 µM | 
19 | CCC1NC(=O)C(C2OC(SCc3cccc(OCC4CCOCC4)c3)CC2C)N(C)C(=O)C(C(C)C)N(C)C(=O)C(CC(C)C)N(C)C(=O)C(CC(C)C)N(C)C(=O)C(C)NC(=O)C(C)NC(=O)C(CC(C)C)N(C)C(=O)C(C(C)C)NC(=O)C(CC(C)C)N(C)C(=O)CN(C)C1=O (stereo not drawn) [Compound 105-s] | 1 to 100 µM |  | 
20 | CCC1NC(=O)C(C2OC(SCc3cccc(N4CCOCC4)c3)CC2C)N(C)C(=O)C(C(C)C)N(C)C(=O)C(CC(C)C)N(C)C(=O)C(CC(C)C)N(C)C(=O)C(C)NC(=O)C(C)NC(=O)C(CC(C)C)N(C)C(=O)C(C(C)C)NC(=O)C(CC(C)C)N(C)C(=O)CN(C)C1=O (stereo not drawn) [Compound 95-s] | 1 to 100 µM |  | 
21 | CCOc1cc(SC2CC(C)C(C3C(=O)NC(CC)C(=O)N(C)CC(=O)N(C)C(CC(C)C)C(=O)NC(C(C)C)C(=O)N(C)C(CC(C)C)C(=O)NC(C)C(=O)NC(C)C(=O)N(C)C(CC(C)C)C(=O)N(C)C(CC(C)C)C(=O)N(C)C(C(C)C)C(=O)N3C)O2)ccc1Cl [Compound 41A, [2-((2R,3R)-5-(4-chloro-3-ethoxyphenylthio)-3-methyltetrahydrofuran-2-yl)-2-(methylamino)acetic acid]^1-cyclosporin A] |  | 0.001 to 1 µM | 
22 | CCC1NC(=O)C(C2OC(SC(c3ccccc3)c3ccccc3)CC2C)N(C)C(=O)C(C(C)C)N(C)C(=O)C(CC(C)C)N(C)C(=O)C(CC(C)C)N(C)C(=O)C(C)NC(=O)C(C)NC(=O)C(CC(C)C)N(C)C(=O)C(C(C)C)NC(=O)C(CC(C)C)N(C)C(=O)CN(C)C1=O (stereo not drawn) [Compound 80A-s] | 1 to 100 µM |  | 
23 | CCC1NC(=O)C(C2OC(Oc3cccc(OCCN(C)C)c3)CC2C)N(C)C(=O)C(C(C)C)N(C)C(=O)C(CC(C)C)N(C)C(=O)C(CC(C)C)N(C)C(=O)C(C)NC(=O)C(C)NC(=O)C(CC(C)C)N(C)C(=O)C(C(C)C)NC(=O)C(CC(C)C)N(C)C(=O)CN(C)C1=O (stereo not drawn) [Compound 14A-o] | 1 to 100 µM |  | 
24 | CCC1NC(=O)C(C2OC(Sc3cccc(OCc4ccc(CN(C)C)cc4)c3)CC2C)N(C)C(=O)C(C(C)C)N(C)C(=O)C(CC(C)C)N(C)C(=O)C(CC(C)C)N(C)C(=O)C(C)NC(=O)C(C)NC(=O)C(CC(C)C)N(C)C(=O)C(C(C)C)NC(=O)C(CC(C)C)N(C)C(=O)CN(C)C1=O [Compound 13A, [2-((2R,3R)-5-(3-(4-((dimethylamino)methyl)benzyloxy)phenylthio)-3-methyltetrahydrofuran-2-yl)-2-(methylamino)acetic acid]^1-cyclosporin A] |  | 0.001 to 1 µM | 
